Results: patent US11786511B2, “Methods for increasing circulating mesenchymal stem cells” (University of Southern California, priority 2017, dated 2023)
Entries after “also recorded” stand apart in the source; their conditions may differ.

Experiments:
Type in all cases: in vivo, C57BL/10ScSn-Dmd^mdx/J)
bone marrow MSCs = assay: Bone marrow CFU-F colony count after 6 weeks oral treatment in the mdx mouse model of DMD; details: mdx mice, vs vehicle treated mdx
Description: (§1) In the mdx mouse model of DMD, 5 week-old wild-type (C57BL/10SnJ) and mdx (C57BL/10ScSn-Dmd^mdx/J) mice were treated for 6 weeks and necropsied. These mice were broken into 4 orally dosed groups: a wild-type group (n=5) dosed twice daily with vehicle, an mdx group (n=8) dosed twice daily with vehicle, an mdx group (n=8) dosed once daily with 8 mg/kg of Compound 7, and an mdx group (n=8) dosed twice daily with 8 mg/kg of Compound 7. The vehicle was a 1% β-cyclodextrin in ˜pH 3 citrate buffer and the treatment 1% β-cyclodextrin in ˜pH 3 citrate buffer with Compound 7. At necropsy, the femur bone marrow was isolated and peripheral blood was harvested. The bone marrow was cultured in Mesencult™ MSC Basal Medium (mouse) supplemented with Mesencult™ MSC Stimulatory Supplement (Stemcell Technologies). CFU-F colonies of ≥50 cells were counted after 8 days in culture.
At necropsy, the femurs were also collected in a 1.5 mL microcentrifuge tube containing ˜800 μL of sterile Dulbecco's phosphate-buffered saline (DPBS) with 2% fetal bovine serum (FBS) and 2× Penicillin (Pen) and 2× Streptomycin (Strep) (DPBS/2% FBS/2× Pen/Strep) and stored on ice. […] The cell solutions were counted with a Z1 Coulter Counter (Beckman Coulter) and resuspended at 5*10^6 cells/mL. […] On day 8, the colonies of ≥50 were counted by light microscopy.

[1] = tested on: bone marrow MSCs (CD45 negative, Sca-1, CD29 & CD105 positive); assay: Flow cytometry of bone marrow for CD45 negative cells triply positive for Sca-1, CD29 & CD105, mdx mouse model; details: mdx mice, 8 mg/kg oral once or twice daily, 6 weeks, vs vehicle treated mdx
Description: as §1, with “The bone marrow was cultured in Mesencult™ MSC Basal Medium (mouse) supplemented with Mesencult™ MSC Stimulatory Supplement (Stemcell Technologies).” left out, “culture. […]” for “culture.”
(§2) During the necropsy, the blood was collected by cardiac puncture with a 1 mL syringe fitted with a 22G needle, transferred into 2 ml K3E K3EDTA VACUETTE® tubes, and stored on ice. […] The cell solutions were counted with a Z1 Coulter Counter (Beckman Coulter) and resuspended at 5*10^6 cells/mL. […] The supernatant was then removed, re-suspend in 500 μL 10% neutral buffered formalin, covered with aluminum foil, and stored at 4° C. until analyzed. Samples were then read on a LSR II flow cytometer (BD Biosciences, San Jose, Calif.). Data was analyzed using FlowJo™ V 10.0.7r2.

[2] = tested on: circulating MSCs (CD45 negative, Sca-1, CD29 & CD105 positive); assay: Flow cytometry of peripheral blood for CD45 negative cells triply positive for Sca-1, CD29 & CD105, mdx mouse model; details: mdx mice, 8 mg/kg oral twice daily, 6 weeks, vs vehicle treated mdx and wild-type
Description: as §1, with “The bone marrow was cultured in Mesencult™ MSC Basal Medium (mouse) supplemented with Mesencult™ MSC Stimulatory Supplement (Stemcell Technologies).” left out, “culture. […]” for “culture.”
as §2

Q: Which “Bone marrow MSC, CFU-F counts (colonies of ≥50 cells after 8 days in culture)” value (bone marrow MSCs; 8 mg/kg oral once daily) does the source give for `CCCCOC(=O)NS(=O)(=O)c1ccc(OC(F)(F)F)cc1-c1ccc(Cn2ccnc2)cn1` [Compound 7] here?
A: Its value is “significantly increased; also recorded: significant increase”.

Q: And the “Bone marrow MSC, CFU-F counts (colonies of ≥50 cells after 8 days in culture)” value (bone marrow MSCs; 8 mg/kg oral twice daily)?
A: The value was “restoring levels comparable to the non-dystrophic controls; also recorded: significant increase”.

Q: And the “Percentage of CD45 negative cells triply positive for Sca-1, CD29 & CD105 in bone marrow” value [1]?
A: Its value is “restored the percentage of these triply positive cells to levels comparable to non-dystrophic controls; also recorded: significantly increased”.

Q: What about the “Percentage of CD45 negative cells triply positive for Sca-1, CD29 & CD105 in peripheral blood (circulating MSCs)” value [2] of the same compound?
A: Its value is “significantly higher; also recorded: significant increase”.
